These results are taken from paper PMC9322314 (2022).

In assay [1] the test system is 22AG (DNA, G4) AGGGTTAGGGTTAGGGTTAGGG
Nature of the assay: CD titration, Hill fit. Conditions: 10 mM Li cacodylate pH 7.2, 3 μM DNA.

The test system of assay [2] is 22AG (32P-labelled) (DNA, G4) AGGGTTAGGGTTAGGGTTAGGG
Nature of the assay: photoalkylation (365 nm), denaturing PAGE. Conditions: 100 mM K+; covalent; 10 mM Li cacodylate pH 7.2, 10 μM DNA, 20 μM compound.

Assay [3] deals with FdxT (DNA, hairpin, hexaethyleneglycol (HEG) loop between 9 and 10) TATAGCTATATAGCTATA
Nature of the assay: FRET melting. The following applies: 10 mM K+, 90 mM Li+; 10 mM Li cacodylate pH 7.2, 0.2 μM DNA, 2 μM compound.

Assay [4] deals with Pu24T (32P-labelled) (DNA, G4) TGAGGGTGGTGAGGGTGGGGAAGG
Nature of the assay: photoalkylation (365 nm), denaturing PAGE. Conditions: 100 mM K+; covalent; 10 mM Li cacodylate pH 7.2, 10 μM DNA, 20 μM compound.

Assay [5] deals with F(21CTA)T (DNA, G4) GGGCTAGGGCTAGGGCTAGGG
Nature of the assay: FRET melting. Conditions: 10 mM K+, 90 mM Li+; 10 mM Li cacodylate pH 7.2, 0.2 μM DNA, 2 μM compound.

For assay [6], the system named is F21T (DNA, G4) GGGTTAGGGTTAGGGTTAGGG
Nature of the assay: FRET melting. The following applies: 10 mM K+, 90 mM Li+; 10 mM Li cacodylate pH 7.2, 0.2 μM DNA, 20 μM compound.

Assay [7] has as its system F(CEB25wt)T (DNA, G4) AAGGGTGGGTGTAAGTGTGGGTGGGT
Nature of the assay: FRET melting. The following applies: 1 mM K+, 99 mM Li+; 10 mM Li cacodylate pH 7.2, 0.2 μM DNA, 2 μM compound.

The test system of assay [8] is F(c-Kit2)T (DNA, G4) GGGCGGGCGCGAGGGAGGGG
Nature of the assay: FRET melting. The following applies: 1 mM K+, 99 mM Li+; 10 mM Li cacodylate pH 7.2, 0.2 μM DNA, 2 μM compound.

Assay [9] concerns F(Pu24T)T (DNA, G4) TGAGGGTGGTGAGGGTGGGGAAGG
Nature of the assay: FRET melting. Conditions: 1 mM K+, 99 mM Li+; 10 mM Li cacodylate pH 7.2, 0.2 μM DNA, 20 μM compound.

Assay [10] concerns F(c-Myc)T (DNA, G4) TTGAGGGTGGGTAGGGTGGGTAA
Nature of the assay: FRET melting. The following applies: 1 mM K+, 99 mM Li+; 10 mM Li cacodylate pH 7.2, 0.2 μM DNA, 2 μM compound.

In the case of `CN(C)Cc1cc(C#Cc2cccc(C#Cc3ccc(O)c(CN(C)C)c3)c2)ccc1O`, the binding result in [1] (100 mM K+) is recorded as “yes”; in assay [1] (100 mM Na+), “yes”; in assay [2], “yes”; in [3], “no”; in assay [4] it was “yes”.
Take `CN(C)Cc1cc2cc(C#Cc3cccc(C#Cc4ccc5cc(O)c(CN(C)C)cc5c4)c3)ccc2cc1O`: the binding entry in assay [1] (100 mM K+) is “yes”; in assay [3], “no”.
As to `CN(C)Cc1ccc(C#Cc2cccc(C#Cc3ccc(CN(C)C)c(O)c3)c2)cc1O`, the results for the binding result in [1] (100 mM K+), in [1] (100 mM Na+) and in assay [3] were “yes”, “yes” and “no”, respectively.
Consider `C[N+](C)(C)Cc1ccc(C#Cc2cccc(C#Cc3ccc(C[N+](C)(C)C)c(O)c3)c2)cc1O`, for which the binding entry was “yes” in assay [1] (100 mM K+); “yes” in [1] (100 mM Na+); “yes” in assay [2]; “no” in [3]; “yes” in assay [4].
On to `C[N+](C)(C)Cc1cc(C#Cc2cccc(C#Cc3ccc(O)c(C[N+](C)(C)C)c3)c2)ccc1O`, for which the binding result was “yes” in [1] (100 mM K+); “yes” in assay [1] (100 mM Na+); “yes” in assay [2]; “no” in assay [3]; “yes” in assay [4].
In the case of `C[N+](C)(C)Cc1cc2cc(C#Cc3cccc(C#Cc4ccc5cc(O)c(C[N+](C)(C)C)cc5c4)c3)ccc2cc1O`, the binding result in [1] (100 mM K+) was “yes”; in [1] (100 mM Na+), “yes”; in assay [5], “weak”; in assay [7], “weak”; in [8] it was “weak”; in [3], “no”. Moreover, the binding result in assay [10] was “yes”. Besides, the “ΔT 1/2” value in assay [6] amounted to 33.3 °C; in assay [9] it was 29.0 °C.
